# Experimental data from patent EP3345917A1, “ANTIPROTOZOAL COMPOUNDS” (Bacoba AG, priority 2017, dated 2018).
# Non-standard residues stand in square brackets, D forms with d. Residues, ends and D or L forms follow the SMILES beside them. *: point of attachment. Benzoyl(4-CF3) = O=C(c1ccc(C(F)(F)F)cc1)*; NH((S)CH(Me)CH2NMe2) = C[C@@H](CN(C)C)N*; Benzoyl(4-OMe) = COc1ccc(C(=O)*)cc1; Gly(octyl) = CCCCCCCC[C@H](N)C(=O)O; Oxazole4CO(2-Me) = Cc1nc(C(=O)*)co1; Thiophene2carbonyl = O=C(c1cccs1)*; hCha = N[C@@H](CCC1CCCCC1)C(=O)O; Pyrrole2CO = O=C(c1ccc[nH]1)*; X20 = O=C(c1ccc2[nH]ccc2c1)*; X15 = O=C(c1ccc2cccnc2c1)*; X17 = C[C@@H](CN1CCOCC1)N*; X21 = O=C(c1ccc2ocnc2c1)*; X4 = O=C(C1CCc2ccccc2C1)*; Aib = CC(C)(N)C(=O)O; βAla = NCCC(=O)O
# Legend:
# Type in all cases: cell-based
# [1] = tested on: Trypanosoma cruzi trypomastigote forms (Tulahuen strain); assay: Intracellular Trypanosoma cruzi assay in L6-cells, beta-galactosidase/CPRG readout; conditions: In vitro inhibition, read-out: T.cruzi.
# Method in brief: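 Readout was β-galactosidase cleavage of CPRG, read photometrically at 540 nm after 2–6 h colour development, giving IC50 values. Parasites: LacZ-expressing Tulahuen C2C4 strain grown in rat L6 myoblasts; run in triplicate.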
# Plasmodium falciparum = assay: 3H-hypoxanthine incorporation assay against Plasmodium falciparum; conditions: In vitro inhibition, read-out: P.falc NF5
# Experimental: (§1) Tests were done in triplicate.
# IC50 values were calculated by linear interpolation.
# [2] = tested on: Trypanosoma brucei rhodesiense (STIB 900 strain); assay: Alamar Blue assay against Trypanosoma brucei rhodesiense grown in axenic medium; conditions: In vitro inhibition, read-out: T.b.rhod.
# Method in brief: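 Alamar Blue-based IC50 determination, in triplicate, on axenically grown STIB 900 trypanosomes. Melarsoprol included as reference.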
# [3] = tested on: intracellular Leishmania donovani (L.don. InMac); assay: Intracellular Leishmania donovani assay (L.don. InMac); conditions: In vitro inhibition
# Description: as §1
# [4] = tested on: Axenically grown Leishmania donovani amastigotes (strain MHOM/ET/67/L82); assay: Axenic Leishmania donovani amastigote resazurin assay; conditions: In vitro inhibition, read-out: L.don. ax
# Method in brief: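 IC50 values derive from resazurin fluorescence (ex 536 nm, em 588 nm), expressed relative to the negative control, after 2-4 hours of plate development. Axenic amastigotes of strain MHOM/ET/67/L82 were used; each test run in triplicate.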
SMILES,IC50 [1] [µM],IC50 (Plasmodium falciparum) [µM],IC50 [2] [µM],IC50 [3] [µM],IC50 [4] [µM]
"CCCCCCCC[C@H](NC(=O)[C@@H]1CCCN1C(=O)c1cccs1)C(=O)N[C@@H](CC(C)C)C(=O)NC(C)(C)C(=O)N[C@@H](CC(C)C)C(=O)N[C@@H](CC(C)C)C(=O)NC(C)(C)C(=O)NC(C)(C)C(=O)NCCC(=O)N[C@@H](C)CN(C)C [Compound 5904, (2S)-N-[(1S)-1-[(1-{[(1S)-1-{[(1S)-1-{[1-({1-[(2-{[(2S)-1-(dimethylamino)propan-2-yl]carbamoyl}ethyl)carbamoyl]-1-methylethyl}carbamoyl)-1-methylethyl]carbamoyl}-3-methylbutyl]carbamoyl}-3-methylbutyl]carbamoyl}-1-methylethyl)carbamoyl]-3-methylbutyl]-2-{[(2S)-1-(thiophene-2-carbonyl)pyrrolidin-2-yl]formamido}decanamide] (Thiophene2carbonyl-P[Gly(octyl)]L[Aib]LL[Aib][Aib][βAla]-{NH((S)CH(Me)CH2NMe2)})",36.3,32.1,0.0002,42.5,42.5
"CCCCCCCC[C@H](NC(=O)[C@@H]1CCCN1C(=O)c1coc(C)n1)C(=O)N[C@@H](CC(C)C)C(=O)NC(C)(C)C(=O)N[C@@H](CC(C)C)C(=O)N[C@@H](CC(C)C)C(=O)NC(C)(C)C(=O)NC(C)(C)C(=O)NCCC(=O)N[C@@H](C)CN(C)C [Compound 5905, (2S)-N-[(1S)-1-[(1-{[(1S)-1-{[(1S)-1-{[1-({1-[(2-{[(2S)-1-(dimethylamino)propan-2-yl]carbamoyl}ethyl)carbamoyl]-1-methylethyl}carbamoyl)-1-methylethyl]carbamoyl}-3-methylbutyl]carbamoyl}-3-methylbutyl]carbamoyl}-1-methylethyl)carbamoyl]-3-methylbutyl]-2-{[(2S)-1-(2-methyl-1,3-oxazole-4-carbonyl)pyrrolidin-2-yl]formamido}decanamide] ({Oxazole4CO(2-Me)}-P[Gly(octyl)]L[Aib]LL[Aib][Aib][βAla]-{NH((S)CH(Me)CH2NMe2)})",42.5,26.4,0.0002,42.4,32
"CCCCCCCC[C@H](NC(=O)[C@@H]1CCCN1C(=O)C1CCc2ccccc2C1)C(=O)N[C@@H](CC(C)C)C(=O)NC(C)(C)C(=O)N[C@@H](CC(C)C)C(=O)N[C@@H](CC(C)C)C(=O)NC(C)(C)C(=O)NC(C)(C)C(=O)NCCC(=O)N[C@@H](C)CN(C)C (stereo partly drawn) [Compound 5910, (2S)-N-[(1S)-1-[(1-{[(1S)-1-{[(1S)-1-{[1-({1-[(2-{[(2S)-1-(dimethylamino)propan-2-yl]carbamoyl}ethyl)carbamoyl]-1-methylethyl}carbamoyl)-1-methylethyl]carbamoyl}-3-methylbutyl]carbamoyl}-3-methylbutyl]carbamoyl}-1-methylethyl)carbamoyl]-3-methylbutyl]-2-{[(2S)-1-(1,2,3,4-tetrahydronaphthalene-2-carbonyl)pyrrolidin-2-yl]formamido}decanamide] (X4-P[Gly(octyl)]L[Aib]LL[Aib][Aib][βAla]-{NH((S)CH(Me)CH2NMe2)})",0.0411,42.6,24.8,42.6,42.6
"CCCCCCCC[C@H](NC(=O)[C@@H]1CCCN1C(=O)c1ccc2[nH]ccc2c1)C(=O)N[C@@H](CC(C)C)C(=O)NC(C)(C)C(=O)N[C@@H](CC(C)C)C(=O)N[C@@H](CC(C)C)C(=O)NC(C)(C)C(=O)NC(C)(C)C(=O)NCCC(=O)N[C@@H](C)CN(C)C [Compound 5911, (2S)-N-[(1S)-1-[(1-{[(1S)-1-{[(1S)-1-{[1-({1-[(2-{[(2S)-1-(dimethylamino)propan-2-yl]carbamoyl}ethyl)carbamoyl]-1-methylethyl}carbamoyl)-1-methylethyl]carbamoyl}-3-methylbutyl]carbamoyl}-3-methylbutyl]carbamoyl}-1-methylethyl)carbamoyl]-3-methylbutyl]-2-{[(2S)-1-(1H-indole-5-carbonyl)pyrrolidin-2-yl]formamido}decanamide] (X20-P[Gly(octyl)]L[Aib]LL[Aib][Aib][βAla]-{NH((S)CH(Me)CH2NMe2)})",0.034,42.5,25.6,0.0348,0.0144
"CCCCCCCC[C@H](NC(=O)[C@@H]1CCCN1C(=O)c1ccc(OC)cc1)C(=O)N[C@@H](CC(C)C)C(=O)NC(C)(C)C(=O)N[C@@H](CC(C)C)C(=O)N[C@@H](CC(C)C)C(=O)NC(C)(C)C(=O)NC(C)(C)C(=O)NCCC(=O)N[C@@H](C)CN(C)C [Compound 5912, (2S)-N-[(1S)-1-[(1-{[(1S)-1-{[(1S)-1-{[1-({1-[(2-{[(2S)-1-(dimethylamino)propan-2-yl]carbamoyl}ethyl)carbamoyl]-1-methylethyl}carbamoyl)-1-methylethyl]carbamoyl}-3-methylbutyl]carbamoyl}-3-methylbutyl]carbamoyl}-1-methylethyl)carbamoyl]-3-methylbutyl]-2-{[(2S)-1-(4-methoxybenzoyl)pyrrolidin-2-yl]formamido}decanamide] ({Benzoyl(4-OMe)}-P[Gly(octyl)]L[Aib]LL[Aib][Aib][βAla]-{NH((S)CH(Me)CH2NMe2)})",17.8,20.9,0.0003,42.6,41.4
"CCCCCCCC[C@H](NC(=O)[C@@H]1CCCN1C(=O)c1ccc(C(F)(F)F)cc1)C(=O)N[C@@H](CC(C)C)C(=O)NC(C)(C)C(=O)N[C@@H](CC(C)C)C(=O)N[C@@H](CC(C)C)C(=O)NC(C)(C)C(=O)NC(C)(C)C(=O)NCCC(=O)N[C@@H](C)CN(C)C [Compound 5936, (2S)-N-[(1S)-1-[(1-{[(1S)-1-{[(1S)-1-{[1-({1-[(2-{[(2S)-1-(dimethylamino)propan-2-yl]carbamoyl}ethyl)carbamoyl]-1-methylethyl}carbamoyl)-1-methylethyl]carbamoyl}-3-methylbutyl]carbamoyl}-3-methylbutyl]carbamoyl}-1-methylethyl)carbamoyl]-3-methylbutyl]-2-{[(2S)-1-[4-(trifluoromethyl)benzoyl]pyrrolidin-2-yl]formamido}decanamide] ({Benzoyl(4-CF3)}-P[Gly(octyl)]L[Aib]LL[Aib][Aib][βAla]-{NH((S)CH(Me)CH2NMe2)})",0.0526,31.3,0.0007,< 0.0332,11.7
CCCCCCCC[C@H](NC(=O)[C@@H]1CCCN1C(=O)c1ccc2ocnc2c1)C(=O)N[C@@H](CC(C)C)C(=O)NC(C)(C)C(=O)N[C@@H](CC(C)C)C(=O)N[C@@H](CC(C)C)C(=O)NC(C)(C)C(=O)NC(C)(C)C(=O)NCCC(=O)N[C@@H](C)CN(C)C [Compound 5937] (X21-P[Gly(octyl)]L[Aib]LL[Aib][Aib][βAla]-{NH((S)CH(Me)CH2NMe2)}),0.0454,27.6,43.5,0.0585,0.0212
"CCCCCCCC[C@H](NC(=O)[C@@H]1CCCN1C(=O)c1ccc2cccnc2c1)C(=O)N[C@@H](CC(C)C)C(=O)NC(C)(C)C(=O)N[C@@H](CC(C)C)C(=O)N[C@@H](CC(C)C)C(=O)NC(C)(C)C(=O)NC(C)(C)C(=O)NCCC(=O)N[C@@H](C)CN(C)C [Compound 5938, (2S)-N-[(1S)-1-[(1-{[(1S)-1-{[(1S)-1-{[1-({1-[(2-{[(2S)-1-(dimethylamino)propan-2-yl]carbamoyl}ethyl)carbamoyl]-1-methylethyl}carbamoyl)-1-methylethyl]carbamoyl}-3-methylbutyl]carbamoyl}-3-methylbutyl]carbamoyl}-1-methylethyl)carbamoyl]-3-methylbutyl]-2-{[(2S)-1-(quinoline-7-carbonyl)pyrrolidin-2-yl]formamido}decanamide] (X15-P[Gly(octyl)]L[Aib]LL[Aib][Aib][βAla]-{NH((S)CH(Me)CH2NMe2)})",42.4,13.2,0.0005,0.0378,42.4
"CCCCCCCC[C@H](NC(=O)[C@@H]1CCCN1C(=O)c1ccc[nH]1)C(=O)N[C@@H](CC(C)C)C(=O)NC(C)(C)C(=O)N[C@@H](CC(C)C)C(=O)N[C@@H](CC(C)C)C(=O)NC(C)(C)C(=O)NC(C)(C)C(=O)NCCC(=O)N[C@@H](C)CN(C)C [Compound 5939, (2S)-N-[(1S)-1-[(1-{[(1S)-1-{[(1S)-1-{[1-({1-[(2-{[(2S)-1-(dimethylamino)propan-2-yl]carbamoyl}ethyl)carbamoyl]-1-methylethyl}carbamoyl)-1-methylethyl]carbamoyl}-3-methylbutyl]carbamoyl}-3-methylbutyl]carbamoyl}-1-methylethyl)carbamoyl]-3-methylbutyl]-2-{[(2S)-1-(1H-pyrrole-2-carbonyl)pyrrolidm-2-yl]formamido}decanamide] (Pyrrole2CO-P[Gly(octyl)]L[Aib]LL[Aib][Aib][βAla]-{NH((S)CH(Me)CH2NMe2)})",42.5,36.2,0.0001,0.209,36
Cc1nc(C(=O)N2CCC[C@H]2C(=O)N[C@@H](CCC2CCCCC2)C(=O)N[C@@H](CC(C)C)C(=O)NC(C)(C)C(=O)N[C@@H](CC(C)C)C(=O)N[C@@H](CC(C)C)C(=O)NC(C)(C)C(=O)NC(C)(C)C(=O)NCCC(=O)N[C@@H](C)CN2CCOCC2)co1 [Compound 6026] ({Oxazole4CO(2-Me)}-P[hCha]L[Aib]LL[Aib][Aib][βAla]-X17),0.422,0.038,41.4,0.0507,44.7
